Measured values published in patent publication US6660769B1, “N substituted 3-amino-2,2-di-c-alkyl-1,4-butyrolactones and 1,4-thiobutyrolactones for use as promoter of γ-aminobutyric acid activity and for treating nervous disorders and preparation method” (priority 1999, dated 2003).

How the values were obtained:
[1] = target: T1, α1β2γ2 recombinant GABA-A receptors (Homo sapiens, UniProt P14867+P18507+P47870); assay: cell-based; details: α1β2γ2
T1 construct: expressed in transfected cells; host or cells: Xenopus laevis oocytes injected with cRNA
T1 sequence (P47870 25-512 limits assumed, one chain of several): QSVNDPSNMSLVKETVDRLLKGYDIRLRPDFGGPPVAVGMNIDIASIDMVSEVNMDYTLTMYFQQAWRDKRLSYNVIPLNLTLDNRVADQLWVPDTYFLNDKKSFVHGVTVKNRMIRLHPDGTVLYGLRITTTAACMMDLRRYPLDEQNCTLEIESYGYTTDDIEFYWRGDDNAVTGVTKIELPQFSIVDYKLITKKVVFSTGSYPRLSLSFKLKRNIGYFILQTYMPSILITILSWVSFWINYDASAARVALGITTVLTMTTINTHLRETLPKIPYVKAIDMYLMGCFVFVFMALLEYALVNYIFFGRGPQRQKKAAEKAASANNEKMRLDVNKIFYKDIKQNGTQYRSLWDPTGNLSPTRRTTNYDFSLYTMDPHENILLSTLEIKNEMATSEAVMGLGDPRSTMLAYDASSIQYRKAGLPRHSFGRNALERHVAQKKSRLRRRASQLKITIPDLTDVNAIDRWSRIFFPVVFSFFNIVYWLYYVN
T1 sequence (P18507 40-475, one chain of several): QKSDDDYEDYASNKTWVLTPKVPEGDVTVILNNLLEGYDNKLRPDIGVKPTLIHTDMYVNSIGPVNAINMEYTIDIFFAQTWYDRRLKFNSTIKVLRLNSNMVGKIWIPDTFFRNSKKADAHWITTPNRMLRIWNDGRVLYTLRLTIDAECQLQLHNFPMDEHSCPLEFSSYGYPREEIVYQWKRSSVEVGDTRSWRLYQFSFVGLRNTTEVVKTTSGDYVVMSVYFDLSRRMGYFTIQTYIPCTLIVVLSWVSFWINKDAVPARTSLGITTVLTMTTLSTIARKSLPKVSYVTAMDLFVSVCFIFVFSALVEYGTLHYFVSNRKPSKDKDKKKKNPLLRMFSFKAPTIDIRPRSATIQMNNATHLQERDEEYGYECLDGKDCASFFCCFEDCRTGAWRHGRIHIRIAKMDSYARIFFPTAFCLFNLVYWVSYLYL

[2] = target: T2, α1β1 GABA-A recombinant receptors (Homo sapiens, UniProt P14867+P18505); assay: Two-electrode voltage clamp, modulation of GABA currents in Xenopus oocytes; format: cell-based
T2 construct: expressed in transfected cells; host or cells: Xenopus laevis oocytes injected with cRNA
T2 sequence (P14867 28-456): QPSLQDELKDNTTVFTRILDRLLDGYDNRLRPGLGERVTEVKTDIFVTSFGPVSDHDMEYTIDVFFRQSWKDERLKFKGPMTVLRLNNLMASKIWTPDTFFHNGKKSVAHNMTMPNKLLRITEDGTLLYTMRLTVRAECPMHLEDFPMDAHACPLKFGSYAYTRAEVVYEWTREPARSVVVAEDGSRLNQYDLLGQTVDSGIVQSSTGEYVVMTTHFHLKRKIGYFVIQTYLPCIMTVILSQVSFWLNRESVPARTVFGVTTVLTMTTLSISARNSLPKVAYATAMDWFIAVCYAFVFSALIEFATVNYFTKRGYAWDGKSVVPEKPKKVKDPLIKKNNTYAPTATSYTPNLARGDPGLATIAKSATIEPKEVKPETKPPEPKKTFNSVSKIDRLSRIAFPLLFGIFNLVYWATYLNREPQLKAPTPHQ
T2 sequence (P18505 26-474): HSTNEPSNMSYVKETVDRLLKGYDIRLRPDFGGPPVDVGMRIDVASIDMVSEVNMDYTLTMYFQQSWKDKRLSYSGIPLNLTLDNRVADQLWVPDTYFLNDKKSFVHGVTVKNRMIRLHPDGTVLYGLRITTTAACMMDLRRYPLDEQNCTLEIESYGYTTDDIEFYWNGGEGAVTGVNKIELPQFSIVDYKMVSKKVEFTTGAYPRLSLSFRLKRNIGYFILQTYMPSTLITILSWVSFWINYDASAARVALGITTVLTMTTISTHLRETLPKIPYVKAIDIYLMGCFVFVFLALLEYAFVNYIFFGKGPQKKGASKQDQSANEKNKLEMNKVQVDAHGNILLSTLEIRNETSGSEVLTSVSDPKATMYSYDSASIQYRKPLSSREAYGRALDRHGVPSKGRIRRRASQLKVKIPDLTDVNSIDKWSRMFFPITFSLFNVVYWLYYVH
Protocol: (§1) The compounds synthesized are also studied for their ability to cause opening of the channel of the GABA-A receptor or to allosterically modulate the currents caused by GABA. For this purpose, the GABA-A recombinant receptors are expressed in Xenopus oocytes. Briefly, Xenopus laevis oocytes are prepared, injected and defolliculated and the currents are recorded in the way described (E. Sigel, J. Physiol., 1987, 386, 73 and E. Sigel, R. Baur, G. Trube, H. Möhler, P. Malherbe, Neuron, 1990, 5, 703). The oocytes are injected with 50 nl of cRNA dissolved in 5 mM of K-Hepes (pH 6.8). This solution comprises the transcripts coding for the various subunits at a concentration of 10 nM for α1, 10 nM for β2 and 50 nM for γ2. The RNA transcripts are synthesized from linearized plasmids encoding the desired protein using the message machine kit (Ambion) according to the recommendations of the manufacturers. A poly(A) tail of approximately 300 residues is added to the transcripts using yeast poly(A) polymerase (USB or Amersham). The cRNA combinations are coprecipitated from ethanol and stored at −20° C. The transcripts are quantified on agarose gels, after having been stained with the RNA stain Radiant Red (Bio-Rad), by comparing the intensities of the stainings with various amounts of molecular weight markers (RNA-Ladder, Gibco-BRL). The electrophysiological experiments are carried out by the two-electrode voltage clamp method at a holding potential of −80 mV. The medium comprises 90 mM of NaCl, 1 mM of KCl, 1 mM of MgCl2, 1 mM of CaCl2 and 10 mM of Na-Hepes (pH 7.4). GABA is applied for 20 s and a washing period of 4 min is allowed in order to provide for the complete […]. The perfusion system is cleaned between the applications of the compounds by washing with dimethyl sulfoxide to prevent contamination. The compounds are applied at a concentration of 100 microM in the absence of GABA in order to see whether they can act as channel agonists. To study the allosteric modulation, GABA is first of all applied alone and then in combination with either […] or 100 microM of compounds.
(§2) Thus, it is observed that the compound R-30 (100 μM) produces a 5 times greater stimulation of the GABA currents in the receptors comprising the β2 subunits with respect to the receptors carrying only the β1 subunit (table 4). At 10 μM, the compound R-30 produces a stimulation only in the receptors comprising the β2 subunit. The anticonvulsant loreclezole similarly enhances the activity of the GABA-A receptor by interacting with a site present on the receptors comprising the β2 subunit (and the β3 subunit) but not present on the receptors comprising the β1 subunit (P. B. Wingrove, K. A. Wafford, C. Bain, P. J. Whiting, Proc. Natl. Acad. Sci. USA, 1994, 91, 4569). […] The compounds of the present invention therefore appear to stimulate the activity of GABA by acting on a different site from that of α-EMTBL and related compounds, despite the apparent structural resemblance of these two classes of compounds.

[3] = tested on: α2β2 GABA-A recombinant receptors; assay: as above; format: cell-based; details: for % of stimulation of the GABA currents: α2β2
Protocol: as §1, §2

[4] = tested on: GABA-A receptors comprising β2 or β3 subunits versus β1 subunit; details: Wingrove et al. 1994; cited from earlier work

Row | Molecule | % of stimulation of the GABA currents ([1]; 10 μM) | % of stimulation of the GABA currents ([1]; 100 μM) | power relative to the corresponding S isomer in stimulating GABA currents [1] | % of stimulation of the GABA currents ([2]; 10 μM) [%] | % of stimulation of the GABA currents ([2]; 100 μM) | % of stimulation of the GABA currents ([3]; 10 μM) | times greater stimulation of the GABA currents in receptors comprising β2 subunits with respect to β1 only ([3]; 100 μM) [times] | % of stimulation of the GABA currents ([3]; 100 μM) | affinity for receptors comprising β2 or β3 subunits relative to receptors comprising the β1 subunit [4] [times]
1 | 3-(R)-Benzyloxycarbonylamino-3,3-di(C-propyl)-1,4-butyrolactone [Compound R-30] | +51 ± 94% | +279 ± 94% | twice as powerful | −5 ± 11 | +92 ± 28% | +78 ± 4% | 5 | +588 ± 166% | 
2 | Cl/C(=C\n1cncn1)c1ccc(Cl)cc1Cl [loreclezole] |  |  |  |  |  |  |  |  | 300
